The test deals with A. baumannii. Description: minimum inhibitory concentration (MIC) against A. baumannii. Type of test: cell-based, Acinetobacter baumannii.

What is called MIC is the least concentration at which growth counts as inhibited.

Molecule Colistin had an MIC of 1 µg/mL.
`CC(=O)OC[C@H]1O[C@@H]([S-])[C@H](OC(C)=O)[C@@H](OC(C)=O)[C@@H]1OC(C)=O.CCP(CC)CC.[Au+]` [Auranofin, (2,3,4,6-Tetra-O-acetyl-1-thio-β-D-glucopyranosato-κS^1)(triethylphosphoranylidene)gold] gave an MIC of 15.6 µg/mL.
